The values that follow come from patent US4409325A, “Valproate conjugation using dicarbonyls” (Syva Company, priority 1981, dated 1983).

For series [1] the following is noted: antiepileptic; cited from earlier work.
For series [2] the following is noted: anticonvulsant use; cited from earlier work.
The test system of the next series is Antivalproate. The experiment in a line: Homogeneous enzyme immunoassay for valproate (absorbance difference). Format: biochemical. The settings on record: difference in absorbance×2.667, 340 mn, 10 to 40 seconds. An excerpt: As previously indicated, the antibodies and enzyme reagents prepared in accordance with the subject invention find particular use in immunoassays for the determination of valproate. A description of the method for carrying out the immunoassay, which is a homogeneous enzyme immunoassay, may be found in U.S. Pat. No. 3,817,837. The method involves combining the enzyme conjugate, the unknown sample suspected of containing valproate, an antibody for valproate in an aqueous buffered medium at temperatures in the range of about 10° to 50°, more usually from about 20° to 40° C., and determining the enzyme activity as compared to the enzyme activity of an assay medium having a known amount of valproate.
In carrying out the assay, a Gilford 300 N microsample spectrophotometer is employed with a Thermocuvette with a flow cell. All readings are made at 340 mn. The following solutions are prepared as reagents for use in the assay.
Sufficient enzyme conjugate to give
a maximum rate of ΔOD equal to
Antivalproate optimized for assay
The protocol employed for carrying out an assay is as follows: A sample, 50 μl is drawn up into a diluter and dispensed with 250 μl of the assay buffer into a one ml Croan cup. A 50 μl aliquot of the diluted sample is drawn up and dispensed with a 250 μl portion of assay buffer into a second Croan cup. Into the second Croan cup is introduced 50 μl of the antibody reagent with 250 μl of the assay buffer, followed by the addition of 50 μl of the enzyme reagent and 250 μl of the assay buffer. Immediately after the enzyme addition, the entire sample is aspirated into the flow cell. After 10 seconds, a first reading is taken, followed by a second reading, after a 40 second interval from aspiration. The results are reported as the difference in absorbance×2.667.

The conditions of series [3]: humans, cited from earlier work.

In the case of `CCCC(CCC)C(=O)[O-].[Na+]` [Valproate, sodium di-n-propylacetate], in series [1], the “minimum level in serum required for therapeutic efficacy” value was not below 50 µg/mL. The toxicity entry in series [2] is “low toxicity”. Also, the ΔOD worked out at 630 in the series with Antivalproate (valproate 25 μg/ml); 646 with Antivalproate (valproate 50 μg/ml); 666 in the series with Antivalproate (valproate 75 μg/ml); 682 in the series with Antivalproate (valproate 100 μg/ml); 714 with Antivalproate (valproate 150 μg/ml).

On to `CCCC(CCC)C(=O)O` [valproic acid, 2-propylpentanoic acid], for which the metabolism entry in series [3] was “metabolized in humans via oxidation predominantly at the positions β and ω to the carboxylic acid”. Moreover, the excretion result in series [3] (urine) is given as “eventually excreted in urine as the free acids or via glucuronide formation”.
